From US8394828B2 (Janssen Pharmaceutica, NV, priority 2003, dated 2013)
pKi: −log10 of the molar value.

Each compound was assayed against T1, human VR1 (Homo sapiens, UniProt Q8NER1) (assay: Human VR1 [3H] RTX binding assay). Conditions: 3H-RTX binding; compound at 1 μM.
T1 construct: expressed in transfected cells; host or cells: HEK293
Procedure: Compounds of the present invention were tested for their ability to inhibit the binding of [^3H] RTX to hVR1 receptors in a [^3H]
HEK293 cells were transfected with human VR1 vanilloid receptors and washed with Hank's Balanced Salt Solution, dissociated with cell dissociation buffer (Sigma), and then centrifuged at 1000×g for 5 min. […] The pelleted membranes were kept in an −80° C. freezer.
Approximately 120 μg protein/ml from membranes were incubated with indicated concentrations of [^3H] RTX in 0.5 ml of the HEPES buffer (pH 7.4) containing 0.25 mg/mL fatty acid-free bovine serum albumin at 37° C. for 60 min. […] The tip of the microcentrifuge tube containing the pellet was cut off. Bound radioactivity was quantified by scintillation counting. Non-specific binding was tested in the presence of 200 nM unlabeled RTX.

T1 sequence (Q8NER1 whole entry): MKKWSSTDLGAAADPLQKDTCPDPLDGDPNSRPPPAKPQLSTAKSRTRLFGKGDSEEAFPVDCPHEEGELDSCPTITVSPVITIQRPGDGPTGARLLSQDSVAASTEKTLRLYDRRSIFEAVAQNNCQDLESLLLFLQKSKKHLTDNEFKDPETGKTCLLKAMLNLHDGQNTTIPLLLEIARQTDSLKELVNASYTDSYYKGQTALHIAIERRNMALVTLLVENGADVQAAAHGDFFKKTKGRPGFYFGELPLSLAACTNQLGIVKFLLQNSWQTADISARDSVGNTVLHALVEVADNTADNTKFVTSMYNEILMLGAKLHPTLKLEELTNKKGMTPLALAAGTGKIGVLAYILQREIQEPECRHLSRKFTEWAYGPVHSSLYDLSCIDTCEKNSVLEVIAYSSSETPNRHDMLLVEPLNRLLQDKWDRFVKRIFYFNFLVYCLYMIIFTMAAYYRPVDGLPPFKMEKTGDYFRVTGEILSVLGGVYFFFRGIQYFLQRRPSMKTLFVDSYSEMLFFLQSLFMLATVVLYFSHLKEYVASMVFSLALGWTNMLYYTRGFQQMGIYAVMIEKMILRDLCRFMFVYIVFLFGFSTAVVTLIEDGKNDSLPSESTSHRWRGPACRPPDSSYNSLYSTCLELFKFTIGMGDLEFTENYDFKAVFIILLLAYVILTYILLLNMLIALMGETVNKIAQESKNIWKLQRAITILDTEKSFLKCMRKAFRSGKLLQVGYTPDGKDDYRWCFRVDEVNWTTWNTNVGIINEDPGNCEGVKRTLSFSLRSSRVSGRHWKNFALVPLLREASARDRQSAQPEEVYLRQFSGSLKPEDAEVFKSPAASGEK

In order of rising inhibition at 1 µM:
1. CCCCCCCN(C)c1ccccc1C(=O)Nc1cnc2ccccc2c1 [2-(Heptyl-methyl-amino)-N-quinolin-3-yl-benzamide]  0%
2. O=C(Nc1cnc2ccccc2c1)c1ccc(N2Cc3ccccc3C2)cc1 [4-(1,3-Dihydro-isoindol-2-yl)-N-quinolin-3-yl-benzamide]  1%
3. O=C(Nc1cnc2ccccc2c1)c1ccc(N2CCC3(CC2)OCCO3)cc1 [4-(1,4-Dioxa-8-aza-spiro[4.5]dec-8-yl)-N-quinolin-3-yl-benzamide]  9%
4. CCCCCN(C)c1ccccc1C(=O)Nc1cnc2ccccc2c1 [2-(Methyl-pentyl-amino)-N-quinolin-3-yl-benzamide]  21%
5. CCCCCNc1ccccc1C(=O)Nc1cnc2ccccc2c1 [2-Pentylamino-N-quinolin-3-yl-benzamide]  23%
6. O=C(Nc1cnc2ccccc2c1)c1ccc(NCC2CCCCC2)cc1Cl [2-Chloro-4-(cyclohexylmethyl-amino)-N-quinolin-3-yl-benzamide]  65%
7. CCCCCN(C)c1ccc(C=CC(=O)Nc2cnc3ccccc3c2)cc1 [3-{4-(Methyl-pentyl-amino)-phenyl}-N-quinolin-3-yl-acrylamide]  65%
8. CC1CCCN(c2ccc(C(=O)Nc3cnc4ccccc4c3)cc2)C1 (stereo not shown) [4-(3-Methyl-piperidin-1-yl)-N-quinolin-3-yl-benzamide]  78%
9. CN(c1cccc(C(=O)Nc2cnc3ccccc3c2)c1)C1CCCCC1 [3-(Cyclohexyl-methyl-amino)-N-quinolin-3-yl-benzamide]  89%
10. O=C(Nc1cnc2ccccc2c1)c1ccc(N2CC[C@@H]3CCCC[C@H]3C2)cc1 (relative stereo) [trans-4-(Octahydro-isoquinolin-2-yl)-N-quinolin-3-yl-benzamide]  104%

Same assay, conditions: 3H-RTX binding; compound at 1 μM; 1 µM

In order of falling “3H-RTX binding assay % Inhibition @ 1 μM” value:
1. O=C(Nc1cnc2ccccc2c1)c1ccc(N2CCCCC2)nc1 [3,4,5,6-Tetrahydro-2H-{1,2′}bipyridinyl-5′-carboxylic acid q] [3,4,5,6-Tetrahydro-2H-{1,2′}bipyridinyl-5′-carboxylic acid quinolin-3-ylamide]  100%
2. O=C(Nc1cnc2ccccc2c1)c1ccc(N2CCCCC2)nc1 [3,4,5,6-Tetrahydro-2H-[1,2′]bipyridinyl-5′-carboxylic acid q] [3,4,5,6-Tetrahydro-2H-[1,2′]bipyridinyl-5′-carboxylic acid quinolin-3-ylamide]  1%

Same assay, conditions: 3H-RTX binding; hVR1; read-out: 3H-RTX binding assay Ki hVR1

In order of falling pKi:
1. CC(C)(C)c1ccc(C=CC(=O)Nc2cnc3ccccc3c2)cc1 [3-(4-tert-Butyl-phenyl)-N-quinolin-3-yl-acrylamide]  8.95
2. CC(C)(C)c1ccc(CCC(=O)Nc2cnc3ccccc3c2)cc1 [3-(4-tert-Butyl-phenyl)-N-quinolin-3-yl-propionamide]  8.69
3. CCC(C)(C)c1ccc(CCC(=O)Nc2cnc3ccccc3c2)s1 [3-{5-(1,1-Dimethyl-propyl)-thiophen-2-yl}-N-quinolin-3-yl-propionamide]  7.85
4. CC(C)(CCc1ccccc1)c1ccc(CCC(=O)Nc2cnc3ccccc3c2)cc1 [3-{4-(1,1-Dimethyl-3-phenyl-propyl)-phenyl}-N-quinolin-3-yl-propionamide]  7.80
5. O=C(Nc1cnc2ccccc2c1)c1ccc(N2CC[C@@H]3CCCC[C@H]3C2)cc1 (relative stereo) [trans-4-(Octahydro-isoquinolin-2-yl)-N-quinolin-3-yl-benzamide]  7.53
6. CN(c1cccc(C(=O)Nc2cnc3ccccc3c2)c1)C1CCCCC1 [3-(Cyclohexyl-methyl-amino)-N-quinolin-3-yl-benzamide]  7.01
7. CCCCCN(C)c1ccc(C=CC(=O)Nc2cnc3ccccc3c2)cc1 [3-{4-(Methyl-pentyl-amino)-phenyl}-N-quinolin-3-yl-acrylamide]  6.91
8. CCCCCN(CCCCC)c1ccc(CCC(=O)Nc2cnc3ccccc3c2)cc1 [3-(4-Dipentylamino-phenyl)-N-quinolin-3-yl-propionamide]  6.82
9. CCCCCN(CCCCC)c1ccc(CC(=O)Nc2cnc3ccccc3c2)cc1 [2-(4-Dipentylamino-phenyl)-N-quinolin-3-yl-acetamide]  6.29
10. O=C(Nc1cnc2ccccc2c1)c1ccc(NCC2CCCCC2)cc1Cl [2-Chloro-4-(cyclohexylmethyl-amino)-N-quinolin-3-yl-benzamide]  5.95
11. CCCCCN(C)c1ccc(CC(=O)Nc2cnc3ccccc3c2)cc1 [2-{4-(Methyl-pentyl-amino)-phenyl}-N-quinolin-3-yl-acetamide]  5.87
12. CCCCCc1ccc(CC(=O)Nc2cnc3ccccc3c2)cc1 [2-(4-Pentyl-phenyl)-N-quinolin-3-yl-acetamide]  5.66
13. CC(C)(C)c1ccc(CC(=O)Nc2cnc3ccccc3c2)cc1 [2-(4-tert-Butyl-phenyl)-N-quinolin-3-yl-acetamide]  5.24
